Test results: patent US20140271657A1, “COMBINATORIAL COMPOSITIONS AND METHODS OF TREATING HEMOGLOBINOPATHIES” (CHILDREN'S MEDICAL CENTER CORPORATION, priority 2011, published 2014)

Assays:
human γ-globin genes = assay: Expression of human γ-globin genes monitored by qRT-PCR in β-YAC mice before and after drug treatment; format: in vivo, mouse
Excerpt: The wild-type β-globin locus transgenic (β-YAC) mouse strain was kindly provided by K. Peterson and was created with the insertion of a 213 kb YAC containing the entire human β-globin locus (30). This β-YAC line contains three intact copies of the human β-globin locus integrated at a single genomic locus. The A20 β-YAC line harboring a single copy of a 150 kb β-globin locus YAC was kindly provided by K. Gaensler and M. Groudine (31). These transgenes were maintained in the hemizygous state. C57BL/6 mice containing a Bcl11a floxed allele (with loxP sites flanking exon 1) were created through gene targeting approaches (G.C.I. et al, in preparation). To obtain the Bcl11a conditional knockout mice, the Bcl11a^fl/fl mice were crossed with various Cre strains, including EpoR-GFP Cre knock-in mice (13), Vav-Cre (32) and Mx1-Cre (33) transgenic mice. The humanized mouse model of sickle cell anemia that expresses exclusively human sickle hemoglobin (HbS) was obtained from The Jackson Laboratory and has been described and characterized previously (19). These mice contain the human sickle transgene [Tg(Hu-miniLCRα1^Gγ^Aγδβ^S)Hba^0//Hba^0Hbb^0//Hbb^0] and knockout of both the murine α- and β-globin genes (hereafter called SCD mice). The human sickle transgene were created by three DNA fragments consisting of a 6.5-kb mini-LCR, a 1.5-kb Pst I fragment containing the human α1-globin gene, and a 39-kb Kpn I fragment containing the human ^Gγ, ^Aγ, δ, and β^S globin genes in their normal genomic context (19). No significant difference in globin gene expression and SCD phenotypes were observed between mice that are knockout of one copy or both copies of murine α-globin genes. To generate BCL11A knockout SCD mice, the inventors introduced the EpoR-Cre and Bcl11a^fl/fi alleles into the SCD transgenic knockout mice (hereafter called SCD/Bcl11a^−/− mice). Mice containing both the human sickle transgene and at least one copy of murine β-globin gene were used as controls. PolyI:ployC (pIpC, SIGMA®) was prepared at 2 mg/ml in PBS and administrated via intraperitoneal (i.p.) injection daily at a dose of 25 μg/kg for 7 days. […]
FACS-sorted CD71^+Ter1 19^+ erythroid cells was isolated from bone marrows of 6-week old mice. […] Model-based expression value of probe sets were calculated by dChip from raw AFFYMETRIX® CEL files, and QQ-normalization was then applied to normalize the expression value distribution among multiple arrays (41). […] For quantitative RT-PCR analysis, RNA was extracted using a QIAamp® RNA Blood Mini Kit or an RNeasy® Plus Mini Kit (QIAGEN®). Quantified RNA was reverse-transcribed using an iScript cDNA Synthesis Kit (BIO-RAD®). cDNA samples were analyzed in triplicate with the iQ™ SYBR® Green Supermix using the iCycler Real-Time PCR Detection System (BIO-RAD®). […]

HDAC = conditions: cited from earlier work; for concentration at which HDAC is inhibited: in vitro or in vivo, literature
[1] = test system: acetyl-H3 within γ-promoter regions; assay: ChIP of chromatin acetyl-H3 within human globin loci in CD71+Ter119+ BM cells of treated β-YAC mice; format: in vivo, mouse; conditions: after SAHA treatment
Excerpt: (§1) The wild-type β-globin locus transgenic (β-YAC) mouse strain was kindly provided by K. Peterson and was created with the insertion of a 213 kb YAC containing the entire human β-globin locus (30). This β-YAC line contains three intact copies of the human β-globin locus integrated at a single genomic locus. The A20 β-YAC line harboring a single copy of a 150 kb β-globin locus YAC was kindly provided by K. Gaensler and M. Groudine (31). These transgenes were maintained in the hemizygous state. C57BL/6 mice containing a Bcl11a floxed allele (with loxP sites flanking exon 1) were created through gene targeting approaches (G.C.I. et al, in preparation). To obtain the Bcl11a conditional knockout mice, the Bcl11a^fl/fl mice were crossed with various Cre strains, including EpoR-GFP Cre knock-in mice (13), Vav-Cre (32) and Mx1-Cre (33) transgenic mice. The humanized mouse model of sickle cell anemia that expresses exclusively human sickle hemoglobin (HbS) was obtained from The Jackson Laboratory and has been described and characterized previously (19). […]
ChIP was performed as previously described (10). […] Precipitated DNA samples were quantified using primers designed to amplify several control regions within the human β-globin locus as indicated below the graph. […]

acetyl-H3 (H3ac) = assay: Western blot of acetyl-H3 (H3ac) in whole-cell extracts of bone marrow cells of treated mice; format: in vivo, mouse; conditions: after SAHA treatment, control and Bcl11a−/− (EpoR-Cre+) mice
Excerpt: as §1
Expression of BCL11A was assessed using antibody 14B5 and 15E3AC11 (Abcam Inc.), as described previously (9). […] GAPDH (sc-25778, Santa Cruz Biotechnology Inc.) was analyzed as a loading control.

In the case of `Nc1ncn([C@H]2C[C@H](O)[C@@H](CO)O2)c(=O)n1` [5-azaD, 5-aza-2′-deoxycytidine], the “interaction of 5-azaD treatment with BCL11A loss on γ-globin mRNA” value (human γ-globin genes; Bcl11a−/− (EpoR-Cre+) vs control β-YAC mice, 5 mg/kg daily for 5 days i.p., 5 mg/kg) is reported as “unexpectedly synergistic”, the “γ-globin mRNA” value (human γ-globin genes; Bcl11a−/− (EpoR-Cre+) β-YAC mice, 5-azaD 5 mg/kg daily for 5 days i.p.) is reported as 37.9% and the “change in γ-globin mRNA” value (human γ-globin genes; normal (control, Bcl11a+/+) β-YAC mice, 5-azaD 5 mg/kg daily for 5 days i.p.) is reported as “very small increment”.
In the case of `CCC(=O)CCCCC[C@@H]1NC(=O)[C@H]2CCCCN2C(=O)[C@H]([C@@H](C)CC)NC(=O)[C@H](Cc2cn(OC)c3ccccc23)NC1=O` [Apicidin], the “concentration at which HDAC is inhibited” value (HDAC) is listed as “nanomolar concentrations”.
For `O=C(/C=C/c1cccc(C(=O)NO)c1)NO` [CBHA, m-carboxy-cinnamic acid bishydroxamic acid], the “concentration at which HDAC is inhibited” value (HDAC) is given as “micromolar concentration or lower”.
In the case of `C/C=C1\NC(=O)[C@H]2CSSCC/C=C/[C@H](CC(=O)N[C@H](C(C)C)C(=O)N2)OC(=O)[C@H](C(C)C)NC1=O` [FR901228], the “concentration at which HDAC is inhibited” value (HDAC) is listed as “micromolar concentrations”.
In the case of `O=C(CCCCCCC(=O)Nc1ccccc1)NO` [SAHA, suberoylanilide hydroxamic acid], the “level of histone H3 acetylation within γ-promoter regions” value [1] is reported as “elevated”, the “interaction of SAHA with BCL11A loss in derepression of γ-globin mRNA” value (human γ-globin genes; Bcl11a−/− (EpoR-Cre+) vs control β-YAC mice, 25 mg/kg daily i.p. for up to three weeks) is reported as “synergized” and the “level of histone H3 acetylation in bone marrow cells” value (acetyl-H3 (H3ac)) is reported as “elevated”.
For `C=C[C@@H](O)[C@@H]1O[C@H]1/C=C/[C@@H]1O[C@@H]1[C@@H](C)O` [depudecin], the “concentration at which HDAC is inhibited” value (HDAC) is listed as “micromolar concentrations”.
In the case of trichostatin A [TSA], the “inhibition of mammalian HDAC” value (HDAC; literature (Yoshida et al. 1990)) is given as “potent inhibitor”.
